This is an account of results in patent publication US12473293B2, “Pharmacologically active heterocyclic-substituted pyrazolo[1,5-a]pyrimidine derivatives” (Richter Gedeon Nyrt., priority 2020, dated 2025).

The target of one assay is T1, GABAB receptor (Rattus norvegicus, UniProt O88871+Q9Z0U4).
T1 construct: from tissue; host or cells: rat brain cortex membranes
Kind of assay: In vitro [35S]GTPγS binding assay in rat cortical membranes. It is filed as biochemical. The following applies: PAM EC50, [35S]GTPγS binding, read-out: In vitro PAM potency. The method, then: In Vitro [^35S]GTPγS Binding Assay in Rat Cortical Membranes
Cortices of freshly harvested rat brains were dissected on an ice-cold surface and homogenized by a glass Dounce homogeniser immediately in ice-cold buffer containing 50 mM Tris, 5 mM MgCl2 and 1 mM EDTA (pH=7.6). Tissue homogenates were centrifuged at 40000 g for 15 min at 4° C. Membrane pellets were resuspended in the same buffer and membranes were incubated for 10 min at 30° C. in a shaking water bath to eliminate endogenous GABA. Homogenates were centrifuged again under the same conditions. The final pellets were resuspended in ice-cold buffer (pH=7.6) containing 50 mM Tris, 100 mM NaCl, 7 mM MgCl2, 1 mM EDTA and 1 mM dithiotreithol (DTT) to yield a concentration of 20 mg tissue weight/ml and frozen at −70° C. until use. The assay was done in a buffer containing 50 mM Tris (pH=7.4), 100 mM NaCl, 7 mM MgCl2, 1 mM EDTA and 1 mM DTT. Each assay tube contained 150 μL GDP (in a final concentration of 50 μM), 100 μL ligand and 125 μL of the membrane suspension ([…]). The assay tubes were preincubated for 10 min at 30° C. to assure equilibrium. Nonspecific binding was determined in the presence of 10 μM GTPγS; basal binding was determined in the presence of buffer only. After addition of […] [^35S]GTPγS in a volume of 25 μL to the tubes, membranes were incubated for an additional 60 min at 30° C. The assay was terminated by rapid filtration through Packard UniFilter GF/B using a Packard harvester and washed four times with 1 ml ice-cold buffer. After drying the filters at 40° C. for 1 h, 40 μL Microscint (Packard) was added to the filters and radioactivity of the filters was determined by a TopCount NXT (PerkinElmer, Waltham, MA; Alper and Nelson, Eur. J. Pharmacol. 1998, 343, 303-312; Rinken et al, Biochem. Pharmacol. 1999, 57, 155-162). Data thus gathered were used to determine PAM EC50 values for each compound as primary in vitro activity end point.
In Table 1 compounds of this invention measured in the [^35S]GTPγS binding assay are listed.
Background: GTPγS is a poorly hydrolysed GTP analogue; its binding reports G protein activation.

The subject of another assay is male Wistar rats. Kind of assay: Foot shock-induced ultrasonic vocalization (USV) in adult rats. The note with it: Rattus norvegicus, po, p.o., 1 h before shocking. The assay is classed as in vivo. As to the method: Foot Shock-Induced Ultrasonic Vocalization (USV) in Adult Rats
Under stressful conditions, adult rats emit 22 kHz ultrasounds that can be reduced by various pharmacological treatments (De Vry et al, Eur. J. Pharmacol. 1993, 249, 331-339; Sanchez, Eur. J. Pharmacol. 2003, 463, 133-143). […] Therefore, a foot shock-induced vocalization paradigm in adult rats was used to assess in vivo efficacy of centrally acting GABAB receptor ligands. Behavioral measurements were carried out on male Wistar rats (200-250 g, Toxicoop, Hungary or Janvier, France). Rats were housed in groups of four in plastic cages with a wire grid top in a temperature and light-controlled laboratory animal care unit (22±2° C., 12-h light/dark cycle, lights on at 6:00 AM) with ad libitum access to commercial pellet rat food and tap water. Investigations were approved by the Local Ethical Committee of Gedeon Richter Plc. and were carried out in strict compliance with the European Directive 2010/63/EU regarding the care and use of laboratory animals for experimental procedures and all efforts were made to minimize the number of animals as well as their suffering. In order to evoke emission of ultrasounds, animals were footshocked after a habituation period of 30 s (6 shocks, 1 s, 0.8 mA each, inter-shock interval 10 s) in a sound attenuated shocking chamber (Experimetria, 40×40×80 cm). […] Vocalizations were measured right after the last footshock for 10 min with a Metris Sonotrack system and the total time of vocalizations was registered. Vocalization of parallel vehicle treated animals was considered as control value and inhibition percent was calculated for each compound.
In Table 2 compounds of this invention measured in the USV assay are listed.

Each structure is given as a SMILES string. Where only a bound is given, the exact number is not on record here.

T1 sequence (O88871 41-940): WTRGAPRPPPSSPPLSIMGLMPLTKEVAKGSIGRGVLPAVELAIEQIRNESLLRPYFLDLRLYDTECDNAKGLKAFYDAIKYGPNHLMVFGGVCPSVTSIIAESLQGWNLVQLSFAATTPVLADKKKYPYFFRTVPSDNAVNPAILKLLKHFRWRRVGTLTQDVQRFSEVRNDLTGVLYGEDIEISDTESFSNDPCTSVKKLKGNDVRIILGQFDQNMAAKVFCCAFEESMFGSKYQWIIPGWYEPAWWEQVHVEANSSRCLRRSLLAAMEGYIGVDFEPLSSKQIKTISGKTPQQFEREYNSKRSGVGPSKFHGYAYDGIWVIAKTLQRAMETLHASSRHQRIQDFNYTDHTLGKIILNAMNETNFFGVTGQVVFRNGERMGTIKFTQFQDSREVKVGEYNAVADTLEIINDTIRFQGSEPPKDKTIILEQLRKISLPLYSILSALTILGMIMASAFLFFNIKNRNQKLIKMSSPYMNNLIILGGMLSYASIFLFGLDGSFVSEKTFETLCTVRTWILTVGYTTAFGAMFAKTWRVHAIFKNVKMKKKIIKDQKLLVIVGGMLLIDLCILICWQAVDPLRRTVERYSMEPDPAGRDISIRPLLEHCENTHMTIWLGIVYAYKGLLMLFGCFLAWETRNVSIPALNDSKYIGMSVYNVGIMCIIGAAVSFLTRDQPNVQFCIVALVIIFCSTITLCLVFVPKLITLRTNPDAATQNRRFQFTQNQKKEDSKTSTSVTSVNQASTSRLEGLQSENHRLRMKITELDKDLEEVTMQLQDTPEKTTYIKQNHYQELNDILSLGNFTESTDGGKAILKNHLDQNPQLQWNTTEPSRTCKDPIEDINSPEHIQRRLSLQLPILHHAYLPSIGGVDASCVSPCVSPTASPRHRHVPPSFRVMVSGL
T1 sequence (Q9Z0U4 17-960 limits assumed): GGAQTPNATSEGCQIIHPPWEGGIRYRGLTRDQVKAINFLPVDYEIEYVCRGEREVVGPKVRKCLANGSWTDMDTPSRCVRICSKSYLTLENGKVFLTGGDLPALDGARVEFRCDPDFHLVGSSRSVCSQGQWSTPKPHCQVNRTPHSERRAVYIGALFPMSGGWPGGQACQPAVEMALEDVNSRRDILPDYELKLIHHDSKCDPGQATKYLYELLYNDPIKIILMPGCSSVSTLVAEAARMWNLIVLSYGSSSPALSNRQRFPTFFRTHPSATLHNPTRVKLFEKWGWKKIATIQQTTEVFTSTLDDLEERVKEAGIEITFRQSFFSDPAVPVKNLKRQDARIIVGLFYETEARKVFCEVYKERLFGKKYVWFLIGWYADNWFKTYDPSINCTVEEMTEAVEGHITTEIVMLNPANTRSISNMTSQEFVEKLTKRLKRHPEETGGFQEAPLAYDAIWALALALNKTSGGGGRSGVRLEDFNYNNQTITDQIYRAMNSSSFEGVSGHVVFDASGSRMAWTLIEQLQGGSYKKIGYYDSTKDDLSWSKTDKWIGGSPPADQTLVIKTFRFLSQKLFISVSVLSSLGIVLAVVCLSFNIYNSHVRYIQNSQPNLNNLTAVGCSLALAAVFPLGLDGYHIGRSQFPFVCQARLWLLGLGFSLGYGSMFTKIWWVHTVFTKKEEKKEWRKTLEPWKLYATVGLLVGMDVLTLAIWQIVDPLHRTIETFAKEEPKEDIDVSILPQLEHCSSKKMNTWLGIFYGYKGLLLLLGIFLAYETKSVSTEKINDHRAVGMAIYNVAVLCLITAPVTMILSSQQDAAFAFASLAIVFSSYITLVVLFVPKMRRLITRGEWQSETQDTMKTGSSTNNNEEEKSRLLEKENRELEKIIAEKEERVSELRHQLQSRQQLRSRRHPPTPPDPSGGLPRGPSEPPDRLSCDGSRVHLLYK

As for `CC(=O)N1CC[C@H](C)[C@H](c2cc(C)nc3c(F)c([C@H]4CC[C@H](C(F)(F)F)CC4)nn23)C1` (racemic) [Example 158], the EC50 at GABAB receptor was in the range of 100 to 1000 nM. Besides, 3 mg/kg produced 35% inhibition in vivo with male Wistar rats. As for `COC(=O)N1CC[C@@H](C)[C@H](c2cc(C)nc3cc([C@H]4CC[C@H](C(F)(F)F)CC4)nn23)C1` (single isomer, unassigned) [Example 5], the EC50 at GABAB receptor was less than 100 nM. This molecule showed an inhibition in vivo at 1 mg/kg in the assay with male Wistar rats of 88%. Consider `Cc1cc([C@H]2CN(C=O)CC[C@H]2C)n2nc([C@H]3CC[C@H](C(F)(F)F)CC3)cc2n1` (single isomer, unassigned) [Example 9], for which the EC50 at GABAB receptor is less than 100 nM. In addition, in the assay with male Wistar rats, at 1 mg/kg the inhibition in vivo was 71%.

Consider `CC(=O)N1CCC[C@@H](c2cc(C)nc3cc([C@H]4CC[C@H](C(F)(F)F)CC4)nn23)C1` [Example 32], for which the EC50 at GABAB receptor fell in the range of 100 to 1000 nM. Moreover, the inhibition in vivo at 3 mg/kg in the assay on male Wistar rats was 68%.

With `CCc1c(C)nc2cc([C@H]3CC[C@H](C(F)(F)F)CC3)nn2c1[C@@H]1CCCN(C(C)=O)C1` [Example 39], the EC50 on GABAB receptor is 100 to 1000 nM. Further, in the assay with male Wistar rats, the inhibition in vivo at 3 mg/kg worked out at 33%. In the case of `CCc1c(C)nc2cc([C@H]3CC[C@H](C(F)(F)F)CC3)nn2c1[C@H]1CCCN(C(C)=O)C1` [Example 42], the EC50 on GABAB receptor is less than 100 nM. Testing at 10 mg/kg in the assay on male Wistar rats gave an inhibition in vivo of 91%. For `CC(=O)N1CCC[C@H](c2c(C)c(C)nc3cc([C@H]4CC[C@H](C(F)(F)F)CC4)nn23)C1` [Example 43], in that order: 100 to 1000 nM and 41%. With `COC(=O)N1CCC[C@@H](c2c(C)c(C)nc3cc([C@H]4CC[C@H](C(F)(F)F)CC4)nn23)C1` [Example 47], the EC50 on GABAB receptor lay within 100 to 1000 nM. In the assay on male Wistar rats, this molecule gave an inhibition in vivo at 10 mg/kg of 63%. As to `Cc1nc2cc([C@H]3CC[C@H](C(F)(F)F)CC3)nn2c([C@@H]2CN(C=O)CC[C@@H]2C)c1C` [Example 58], the EC50 at GABAB receptor was less than 100 nM. The same molecule displayed an inhibition in vivo at 1 mg/kg with male Wistar rats of 44%. For the molecule `CCc1c(C)nc2cc([C@H]3CC[C@H](C(F)(F)F)CC3)nn2c1[C@@H]1CN(C(C)=O)CC[C@@H]1C` [Example 66], the EC50 at GABAB receptor is less than 100 nM. In addition, testing at 1 mg/kg with male Wistar rats gave an inhibition in vivo of 49%. `Cc1cc([C@H]2CN(C=O)CC[C@@H]2C)n2nc([C@H]3CC[C@H](C(F)(F)F)CC3)cc2n1` [Example 68]: the EC50 on GABAB receptor is less than 100 nM. In addition, in the assay on male Wistar rats, 1 mg/kg produced 39% inhibition in vivo.

As to `Cc1nc2cc([C@H]3CC[C@H](C(F)(F)F)CC3)nn2c(C2CN(C=O)CC(F)(F)C2)c1C` (stereo partly drawn) [Example 75], the EC50 at GABAB receptor was less than 100 nM. In the assay with male Wistar rats, this molecule displayed an inhibition in vivo at 1 mg/kg of 19%. As for `CCc1c(C)nc2cc([C@H]3CC[C@H](C(F)(F)F)CC3)nn2c1C1CN(C=O)CCO1` (stereo partly drawn) [Example 82], the EC50 on GABAB receptor is less than 100 nM. Testing at 1 mg/kg with male Wistar rats gave an inhibition in vivo of 86%. In the case of `COC(=O)N1CCO[C@@H](c2cc(C)nc3cc([C@H]4CC[C@H](C(F)(F)F)CC4)nn23)C1` [Example 91], the EC50 at GABAB receptor is less than 100 nM. Also, in the assay on male Wistar rats, the inhibition in vivo at 1 mg/kg came to 89%. As to `CNC(=O)N1CCO[C@@H](c2cc(C)nc3cc([C@H]4CC[C@H](C(F)(F)F)CC4)nn23)C1` [Example 111], the EC50 at GABAB receptor is 100 to 1000 nM. For the same molecule, the inhibition in vivo at 1 mg/kg in the assay on male Wistar rats was 44%. As for `Cc1cc([C@H]2CN(C(=O)N(C)C)CCO2)n2nc([C@H]3CC[C@H](C(F)(F)F)CC3)cc2n1` [Example 112], the EC50 on GABAB receptor was in the range of 100 to 1000 nM. This molecule also had an inhibition in vivo at 1 mg/kg in the assay on male Wistar rats of 72%. For `Cc1cc([C@H]2CN(C(=O)c3cocn3)CCO2)n2nc([C@H]3CC[C@H](C(F)(F)F)CC3)cc2n1` [Example 113], the EC50 on GABAB receptor was in the range of 100 to 1000 nM. In the assay with male Wistar rats, at 1 mg/kg the inhibition in vivo was 66%. For `CCOC(=O)N1CCO[C@@H](c2cc(C)nc3cc([C@H]4CC[C@H](C(F)(F)F)CC4)nn23)C1` [Example 116], in that order: 100 to 1000 nM and 0%. `COC(=O)N1CCO[C@@H](c2cc(C)nc3c(F)c([C@H]4CC[C@H](C(F)(F)F)CC4)nn23)C1` [Example 117]: on GABAB receptor, the EC50 was less than 100 nM. Besides, the inhibition in vivo at 1 mg/kg in the assay with male Wistar rats worked out at 73%. With `Cc1cc([C@H]2CN(S(=O)(=O)N(C)C)CCO2)n2nc([C@H]3CC[C@H](C(F)(F)F)CC3)cc2n1` [Example 120], the EC50 on GABAB receptor is 100 to 1000 nM. On the same count and under the same terms, to `Cc1cc([C@H]2CN(C(=O)c3cscn3)CCO2)n2nc([C@H]3CC[C@H](C(F)(F)F)CC3)cc2n1` [Example 121] belongs 100 to 1000 nM; to `COC(=O)N1C[C@@H](c2cc(C)nc3cc([C@H]4CC[C@H](C(F)(F)F)CC4)nn23)OC[C@@H]1C(C)C` [Example 122], 100 to 1000 nM.

For the molecule `Cc1cc([C@H]2CN(C(=O)c3nnc(C)o3)CCO2)n2nc([C@H]3CC[C@H](C(F)(F)F)CC3)cc2n1` [Example 123], the EC50 at GABAB receptor is 100 to 1000 nM.

For `COC(=O)N1C[C@@H](c2cc(C)nc3cc([C@H]4CC[C@H](C(F)(F)F)CC4)nn23)O[C@@H](C)C1` [Example 124], the EC50 on GABAB receptor was not below 10000 nM.

Take `COC(=O)N1C[C@H](C)O[C@@H](c2cc(C)nc3cc([C@H]4CC[C@H](C(F)(F)F)CC4)nn23)C1` [Example 125]: the EC50 on GABAB receptor fell in the range of 100 to 1000 nM.

Regarding `COC(=O)N1CCSC(c2cc(C)nc3cc([C@H]4CC[C@H](C(F)(F)F)CC4)nn23)C1` (stereo partly drawn) [Example 126, methyl 2-{5-methyl-2-[trans-4-(trifluoromethyl)cyclohexyl]pyrazolo[1,5-a]pyrimidin-7-yl}thiomorpholine-4-carboxylate], the EC50 at GABAB receptor fell in the range of 100 to 1000 nM. Still for that read-out and setting: under `COC(=O)N1C[C@H](c2cc(C)nc3cc([C@H]4CC[C@H](C(F)(F)F)CC4)nn23)OC[C@@H]1C(C)C` [Example 127] stands 100 to 1000 nM.

For `COC(=O)N1CC[C@@H](C)[C@H](c2cc(C)nc3c(F)c([C@H]4CC[C@H](C(F)(F)F)CC4)nn23)C1` [Example 128], the EC50 on GABAB receptor lay within 1000 to 10000 nM.

For `COC(=O)N1CC[C@H](C)[C@@H](c2cc(C)nc3c(F)c([C@H]4CC[C@H](C(F)(F)F)CC4)nn23)C1` [Example 129], the EC50 on GABAB receptor was 100 to 1000 nM. Still for that read-out and setting: to `COC(=O)N1CCO[C@H](c2cc(C)nc3c(F)c([C@H]4CC[C@H](C(F)(F)F)CC4)nn23)C1` [Example 130] belongs 100 to 1000 nM. `COC(=O)N1CCO[C@@H](c2cc(C)nc3cc([C@H]4CC[C@H](C(C)(C)C)CC4)nn23)C1` [Example 132]: the EC50 at GABAB receptor was less than 100 nM. The molecule also displayed an inhibition in vivo at 1 mg/kg with male Wistar rats of 65%.

One may read the inhibition in vivo as how much of the control response was suppressed.
